Results: patent publication US20220033397A1, “PHARMACEUTICAL COMPOUNDS AND THEIR USE AS INHIBITORS OF UBIQUITIN SPECIFIC PROTEASE 19 (USP19)” (ALMAC DISCOVERY LIMITED, priority 2018, published 2022)

Target: T1, Full-length USP19 (Homo sapiens, UniProt O94966)
T1 construct: Full-length USP19 was purchased from Boston Biochem (E-576); purchased Boston Biochem E-576
T1 sequence (O94966 1-1318): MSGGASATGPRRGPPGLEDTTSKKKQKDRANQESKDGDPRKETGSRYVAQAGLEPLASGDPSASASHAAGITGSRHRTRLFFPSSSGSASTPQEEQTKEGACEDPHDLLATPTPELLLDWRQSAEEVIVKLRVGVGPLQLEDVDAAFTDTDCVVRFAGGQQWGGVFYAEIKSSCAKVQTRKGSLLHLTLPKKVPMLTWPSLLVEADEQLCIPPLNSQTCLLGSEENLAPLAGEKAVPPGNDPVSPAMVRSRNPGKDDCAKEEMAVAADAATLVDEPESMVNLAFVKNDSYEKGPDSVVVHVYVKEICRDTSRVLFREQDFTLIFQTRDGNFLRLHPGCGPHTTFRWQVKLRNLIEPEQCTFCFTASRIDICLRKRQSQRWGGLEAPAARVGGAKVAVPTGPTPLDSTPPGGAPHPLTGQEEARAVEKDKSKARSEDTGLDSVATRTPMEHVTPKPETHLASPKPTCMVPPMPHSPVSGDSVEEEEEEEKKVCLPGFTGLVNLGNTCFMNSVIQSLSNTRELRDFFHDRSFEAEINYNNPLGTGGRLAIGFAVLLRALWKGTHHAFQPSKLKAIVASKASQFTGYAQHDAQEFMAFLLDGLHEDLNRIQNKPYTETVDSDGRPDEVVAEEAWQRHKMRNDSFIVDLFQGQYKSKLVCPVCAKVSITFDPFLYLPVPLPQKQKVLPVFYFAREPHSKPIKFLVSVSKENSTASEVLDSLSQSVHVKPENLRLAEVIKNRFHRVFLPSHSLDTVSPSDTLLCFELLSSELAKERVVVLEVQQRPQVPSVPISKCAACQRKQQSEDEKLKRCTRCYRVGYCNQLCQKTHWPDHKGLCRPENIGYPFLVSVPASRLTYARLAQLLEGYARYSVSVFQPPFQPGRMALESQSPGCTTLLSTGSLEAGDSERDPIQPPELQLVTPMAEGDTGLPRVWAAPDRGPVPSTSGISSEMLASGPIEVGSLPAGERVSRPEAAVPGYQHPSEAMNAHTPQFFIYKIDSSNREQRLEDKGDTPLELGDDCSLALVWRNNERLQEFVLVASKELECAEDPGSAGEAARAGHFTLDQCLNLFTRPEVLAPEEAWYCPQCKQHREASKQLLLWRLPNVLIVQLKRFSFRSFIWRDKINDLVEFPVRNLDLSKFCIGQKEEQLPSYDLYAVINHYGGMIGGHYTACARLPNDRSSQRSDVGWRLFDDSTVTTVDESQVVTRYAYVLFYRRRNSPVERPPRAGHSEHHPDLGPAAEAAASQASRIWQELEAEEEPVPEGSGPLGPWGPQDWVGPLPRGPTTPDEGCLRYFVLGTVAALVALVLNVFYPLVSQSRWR
Test: USP19 fluorescence polarisation (FP) homogeneous assay with Ubiquitin-Lys-TAMRA substrate
Format: biochemical
Conditions: 2.5 nM USP19, 30 min pre-incubation, average of at least two duplicate experiments
Method in brief: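 Full-length USP19 preincubated 30 min at RT with inhibitor (200 μM to 2 μM series, 8–18 points) before adding 500 nM Ubiquitin-Lys-TAMRA substrate.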

IC50	SMILES
< 0.5 µM	CN(C)C(=O)c1cn(CC2(O)CCN(C(=O)N(C)Cc3ccccc3)CC23CCCC3)c(=O)cc1-c1ccccc1 (stereo not shown) [Example 87, N-Benzyl-10-((5-(dimethylcarbamoyl)-2-oxo-4-phenylpyridin-1(2H)-yl)methyl)-10-hydroxy-N-methyl-7-azaspiro[4.5]decane-7-carboxamide]
< 0.5 µM	CN(C)C(=O)c1cn(CC2(O)CCN(C(=O)N3CCC(C(F)(F)F)C3)CC23CCCC3)c(=O)cc1-c1ccccc1 (stereo not shown) [Example 88, 1-((10-Hydroxy-7-(3-(trifluoromethyl)pyrrolidine-1-carbonyl)-7-azaspiro[4.5]decan-10-yl)methyl)-N,N-dimethyl-6-oxo-4-phenyl-1,6-dihydropyridine-3-carboxamide]
5 to 50 µM	CN(C)C(=O)c1cn(CC2(O)CCN(C(=O)N(C)C3CCCCC3)CC23CCCC3)c(=O)cc1-c1ccccc1 (stereo not shown) [Example 89, N-Cyclohexyl-10-((5-(dimethylcarbamoyl)-2-oxo-4-phenylpyridin-1(2H)-yl)methyl)-10-hydroxy-N-methyl-7-azaspiro[4.5]decane-7-carboxamide]
0.5 to 5 µM	O=C(N1CCC(O)(Cn2ccncc2=O)C2(CCCC2)C1)N1CCOC[C@H]1c1ccccc1 (stereo partly drawn) [Example 90, 1-((10-Hydroxy-7-((R)-3-phenylmorpholine-4-carbonyl)-7-azaspiro[4.5]decan-10-yl)methyl)pyrazin-2(1H)-one]
0.5 to 5 µM	O=C(N1CCC(O)(Cn2ccncc2=O)C2(CCCC2)C1)N1CCNC[C@H]1c1ccccc1 (stereo partly drawn) [Example 91, 1-((10-Hydroxy-7-((R)-2-phenylpiperazine-1-carbonyl)-7-azaspiro[4.5]decan-10-yl)methyl)pyrazin-2(1H)-one]
< 0.5 µM	Cc1cn(CC2(O)CCN(C(=O)N3CCNC[C@H]3c3ccccc3)CC23CCCC3)c(=O)cn1 (stereo partly drawn) [Example 92, 1-((10-Hydroxy-7-((R)-2-phenylpiperazine-1-carbonyl)-7-azaspiro[4.5]decan-10-yl)methyl)-5-methylpyrazin-2(1H)-one]
5 to 50 µM	Cc1nccn(CC2(O)CCN(C(=O)N3CCNC[C@H]3c3ccccc3)CC23CCCC3)c1=O (stereo partly drawn) [Example 93, 1-((10-Hydroxy-7-((R)-2-phenylpiperazine-1-carbonyl)-7-azaspiro[4.5]decan-10-yl)methyl)-3-methylpyrazin-2(1H)-one]
50 to 250 µM	C[C@@H]1CN(CC2(O)CCN(C(=O)[C@H](C)CC(F)(F)F)CC23CCCC3)C(=O)CO1 (stereo partly drawn) [Example 94, (6R)-4-((10-Hydroxy-7-((R)-4,4,4-trifluoro-2-methylbutanoyl)-7-azaspiro[4.5]decan-10-yl)methyl)-6-methylmorpholin-3-one]
50 to 250 µM	C[C@H](CC(F)(F)F)C(=O)N1CCC(O)(CN2CC(C3CC3)OCC2=O)C2(CCCC2)C1 (stereo partly drawn) [Example 95, 6-Cyclopropyl-4-((10-hydroxy-7-((R)-4,4,4-trifluoro-2-methylbutanoyl)-7-azaspiro[4.5]decan-10-yl)methyl)morpholin-3-one]
50 to 250 µM	C[C@H](CC(F)(F)F)C(=O)N1CCC(O)(CN2C(=O)COCC23CC3)C2(CCCC2)C1 (stereo partly drawn) [Example 96, 4-((10-Hydroxy-7-((R)-4,4,4-trifluoro-2-methylbutanoyl)-7-azaspiro[4.5]decan-10-yl)methyl)-7-oxa-4-azaspiro[2.5]octan-5-one]
50 to 250 µM	CC1CN(CC2(O)CCN(C(=O)[C@H](C)CC(F)(F)F)CC23CCCC3)C(=O)CO1 (stereo partly drawn) [Example 97, 4-((10-Hydroxy-7-((R)-4,4,4-trifluoro-2-methylbutanoyl)-7-azaspiro[4.5]decan-10-yl)methyl)-6-methylmorpholin-3-one]
5 to 50 µM	COCC1CCN(CC2(O)CCN(C(=O)[C@H](C)CC(F)(F)F)CC23CCCC3)C(=O)C1 (stereo partly drawn) [Example 98, 1-((10-Hydroxy-7-((R)-4,4,4-trifluoro-2-methylbutanoyl)-7-azaspiro[4.5]decan-10-yl)methyl)-4-(methoxymethyl)piperidin-2-one]
5 to 50 µM	CC1CC(=O)N(CC2(O)CCN(C(=O)[C@H](C)CC(F)(F)F)CC23CCCC3)CC(C)C1 (stereo partly drawn) [Example 99, 1-((10-Hydroxy-7-((R)-4,4,4-trifluoro-2-methylbutanoyl)-7-azaspiro[4.5]decan-10-yl)methyl)-4,6-dimethylazepan-2-one]
5 to 50 µM	CCC1CCN(CC2(O)CCN(C(=O)[C@H](C)CC(F)(F)F)CC23CCCC3)C(=O)C1 (stereo partly drawn) [Example 100, 4-Ethyl-1-((10-hydroxy-7-((R)-4,4,4-trifluoro-2-methylbutanoyl)-7-azaspiro[4.5]decan-10-yl)methyl)piperidin-2-one]
50 to 250 µM	C[C@H](CC(F)(F)F)C(=O)N1CCC(O)(CN2C(=O)CC2c2ccccc2)C2(CCCC2)C1 (stereo partly drawn) [Example 101, 1-((10-Hydroxy-7-((R)-4,4,4-trifluoro-2-methylbutanoyl)-7-azaspiro[4.5]decan-10-yl)methyl)-4-phenylazetidin-2-one]
5 to 50 µM	C[C@H](CC1CCCCC1)C(=O)N1CCC(O)(CN2Cc3cccnc3C2=O)C2(CCCC2)C1 (stereo partly drawn) [Example 102, 6-((7-((R)-3-Cyclohexyl-2-methylpropanoyl)-10-hydroxy-7-azaspiro[4.5]decan-10-yl)methyl)-5,6-dihydro-7H-pyrrolo[3,4-b]pyridin-7-one]
0.5 to 5 µM	C[C@H](CC1CCCCC1)C(=O)N1CCC(O)(CN2Cc3ncccc3C2=O)C2(CCCC2)C1 (stereo partly drawn) [Example 103, 6-((7-((R)-3-Cyclohexyl-2-methylpropanoyl)-10-hydroxy-7-azaspiro[4.5]decan-10-yl)methyl)-6,7-dihydro-5H-pyrrolo[3,4-b]pyridin-5-one]
50 to 250 µM	C[C@H](CC(F)(F)F)C(=O)N1CCC(O)(CN2Cc3ncccc3C2=O)C2(CCCC2)C1 (stereo partly drawn) [Example 104, 6-((10-Hydroxy-7-((R)-4,4,4-trifluoro-2-methylbutanoyl)-7-azaspiro[4.5]decan-10-yl)methyl)-6,7-dihydro-5H-pyrrolo[3,4-b]pyridin-5-one]
50 to 250 µM	C[C@H](CC(F)(F)F)C(=O)N1CCC(O)(CN2Cc3cnccc3C2=O)C2(CCCC2)C1 (stereo partly drawn) [Example 106, 2-((10-Hydroxy-7-((R)-4,4,4-trifluoro-2-methylbutanoyl)-7-azaspiro[4.5]decan-10-yl)methyl)-2,3-dihydro-1H-pyrrolo[3,4-c]pyridin-1-one]
5 to 50 µM	O=C1CN(C(=O)c2ccccc2)CCN1CC1(O)CCN(C(=O)NCc2ccccc2)CC12CCCC2 (stereo not shown) [Example 107, 10-((4-Benzoyl-2-oxopiperazin-1-yl)methyl)-N-benzyl-10-hydroxy-7-azaspiro[4.5]decane-7-carboxamide]
5 to 50 µM	C[C@H](CC(F)(F)F)C(=O)N1CCC(O)(CN2CCN(C(=O)c3ccccc3)CC2=O)C2(CCCC2)C1 (stereo partly drawn) [Example 108, 4-Benzoyl-1-((10-hydroxy-7-((R)-4,4,4-trifluoro-2-methylbutanoyl)-7-azaspiro[4.5]decan-10-yl)methyl)Piperazin-2-one]
< 0.5 µM	O=C1CN(c2ccccc2)CCN1CC1(O)CCN(C(=O)NCc2ccccc2)CC12CCCC2 (stereo not shown) [Example 109, N-Benzyl-10-hydroxy-10-((2-oxo-4-phenylpiperazin-1-yl)methyl)-7-azaspiro[4.5]decane-7-carboxamide]
< 0.5 µM	C[C@H](CC(F)(F)F)C(=O)N1CCC(O)(CN2CCN(c3ccccc3)CC2=O)C2(CCCC2)C1 (stereo partly drawn) [Example 110, 1-((10-Hydroxy-7-((R)-4,4,4-trifluoro-2-methylbutanoyl)-7-azaspiro[4.5]decan-10-yl)methyl)-4-phenylpiperazin-2-one]
5 to 50 µM	CC(=O)N1CCN(CC2(O)CCN(C(=O)NCc3ccccc3)CC23CCCC3)C(=O)C1 (stereo not shown) [Example 111, 10-((4-Acetyl-2-oxopiperazin-1-yl)methyl)-N-benzyl-10-hydroxy-7-azaspiro[4.5]decane-7-carboxamide]
5 to 50 µM	CC(=O)N1CCN(CC2(O)CCN(C(=O)[C@H](C)CC(F)(F)F)CC23CCCC3)C(=O)C1 (stereo partly drawn) [Example 112, 4-Acetyl-1-((10-hydroxy-7-((R)-4,4,4-trifluoro-2-methylbutanoyl)-7-azaspiro[4.5]decan-10-yl)methyl)piperazin-2-one]
